Test results as given in PMC5790279, “Identification of novel leishmanicidal molecules by virtual and biochemical screenings targeting Leishmania eukaryotic translation initiation factor 4A” (PLoS Neglected Tropical Diseases, 2018).
Like-named read-outs stand apart in the source and are kept apart here.

What was measured:
[1] = tested on: intracellular L. donovani amastigotes; parameters: method as in PMID 16949702; settings: at 1.94 μM; cited from earlier work
[2] = biological target: T1, eIF4AIMus (Mus musculus, UniProt P60843); experiment: Malachite green RNA-dependent ATPase assay of eIF4AIMus; type: biochemical; settings: for effect on the ATPase activity of eIF4AIMus in screen: screened at 500 μM
T1 construct: His tag; made in house; host or cells: Escherichia coli Rosetta (Novagen)
Description: (§1) The Rosetta Escherichia coli strain (Novagen) was used for the expression of His-tagged recombinant LieIF and mouse eIF4AI (eIF4AIMus) proteins using already described constructs. Protein expression was performed as previously described, except that cultures were induced with 0.5 mM IPTG. Cells were collected by centrifugation and stored at -20°C until needed. Pellets were resuspended in 10 ml of buffer A (Tris-HCl, pH 7.5, 300 mM NaCl) supplemented with 10 mM imidazole and 0.02% NP40 (lysis buffer). Lysozyme (10 μg/ml, Sigma-Aldrich, St. Louis, MO, USA) and 1x of complete protease inhibitor EDTA-free cocktail (Roche, Indianapolis, USA) were added. The mixtures were kept on ice for 30 min. Then, cells were ruptured by sonication four times for 20 seconds with a Cell Disruptor W375 (Heat System-Ultrasonic, Plainview, N.Y., USA) using a microprobe at a setting of 5 and a duty cycle of 60%. The material was centrifuged for 30 min at 15,000 rpm in a JA-20 rotor (Beckman Coulter, Villepinte, France) at 4°C, and the supernatant was loaded onto a 1 ml nickel-nitrilotriacetic acid (Ni-NTA) agarose column (Ni-NTA, Qiagen, Hilden, Germany) equilibrated with the lysis buffer. The column was washed with 20 ml buffer A supplemented with 25 mM imidazole and 0.02% NP40 (wash buffer 1), and then with 20 ml buffer A supplemented with 25 mM imidazole (wash buffer 2). Proteins were eluted with buffer A supplemented with 100 mM imidazole (elution buffer). The purity of the proteins was checked on 12% SDS-PAGE gels that were stained with Coomassie blue. Purified proteins were stored at -80°C after making 50% in glycerol (w/w). The proteins concentrations were determined using the Bio-Rad Protein Dye Assay (Biorad, Munich, Germany).
(§2) We used a colorimetric assay based on Malachite green as previously described. We optimized the previously published conditions for the LieIF and eIF4AIMus ATPase assays to fit microtiter plates and the screening conditions by varying the quantities of proteins, ATP and magnesium acetate, and by testing different sources and concentrations of RNA. Each reaction was done in 50 μl. The final reaction buffers contained 50 mM potassium acetate, 20 mM MES, pH 6, either 5 mM or 1 mM magnesium acetate for LieIF or eIF4AIMus respectively, 2 mM dithiothreitol (DTT), 0.1 mg/ml bovine serum albumin (BSA) and 0.34 mg/ml whole yeast RNA (Type XI, Sigma). Reactions were incubated at 37°C for various times up to 45 min, and were stopped by adding 5 μl of 0.5 M ethylenediaminetetraacetic acid (EDTA) at pH 8. In experiments testing the compounds, samples dissolved in DMSO were added to the reaction in different concentrations. The final concentration of DMSO in the reaction was 10% (v/v). The reaction rates were determined by a linear regression fit of the initial, linear phase of the curves. Reaction rates were determined in three independent experiments for each compound concentration. Data were analyzed with Kaleidagraph (Synergy).
Biochemical screening experiments were performed in 96-well plates. Column 1 and 12 contained full signal controls (no inhibitor) and background controls (no enzyme): wells A1 to D1 and E12 to H12 corresponded to negative controls; E1 to H1 and A12 to D12 corresponded to positive controls. Compounds were added in columns 2 to 11, at a 500 μM final concentration. ATPase test reactions were done in three independent experiments. The phosphate released was measured after 45 min. Results were reported as weighted means. Z’-scores were calculated for each plate from the full signal and background controls. Plates with Z’-values below 0.5 were discarded. The inhibition of ATPase activity was calculated as follow: [85] Percentageofinhibition=(μ^+-OD630nmforcompoundX)/(μ^+-μ^-)*100 (3) Selected hits were further tested with kinetic assays. Results were reported as ATPase reaction velocities. […]

[3] = MTT cytotoxicity assay on THP-1-derived macrophages; settings: human, THP-1-derived macrophages (PMA-differentiated)
Description: The human myelomonocytic cell line, THP-1 was ordered from the American Type Culture Collection (ATCC, TIB-202). [86] Cells were maintained in RPMI 1640/Glutamax-I media (Gibco BRL, Germany) supplemented with 10% heat-inactivated fetal calf serum (Gibco, Germany) plus penicillin G (100 U/ml) and streptomycin (100 g/ml). THP-1 cells were differentiated to macrophages after their treatment with 20 ng/ml phorbol 12-myristate 7-acetate (PMA) (Sigma, St. Louis, MO, USA) for 48 h at 37°C, 5% CO2. [87] […] [87]
For the cytotoxicity assay, we used the THP-1-derived macrophages (50,000 cells/well) seeded in 96-well plates and treated with serial concentrations of compounds (final concentrations of 1.5-100 μM) for 24h. After that, an MTT assay was performed as previously described to determine cell viability. [88] Thus, 20 μl of MTT solution (5 mg/ml) were added to each well and incubated at 25°C for 4h. Then, 150 μl of DMSO were added to each well to dissolve the blue formazan and the optical density (OD) was measured at 560 nm with a microplate reader ([sequence], Labsystems).
The cell viability of THP-1-derived macrophages was expressed as the percentage of the viable cell number in treated cells relative to the THP-1-derived macrophages treated with 1% DMSO. The 50% cytotoxic concentrations (CC50) were calculated for all the tested compounds by interpolation. All experiments were repeated three times in triplicate for each compound concentration.

[4] = biological target: T2, LieIF (Leishmania infantum, UniProt A4HRK0); experiment: Malachite green RNA-dependent ATPase assay of LieIF; type: biochemical; settings: for effect on the ATPase activity of LieIF in screen: screened at 500 μM
T2 construct: His tag; made in house; host or cells: Escherichia coli Rosetta (Novagen)
T2 sequence (A4HRK0 1-403): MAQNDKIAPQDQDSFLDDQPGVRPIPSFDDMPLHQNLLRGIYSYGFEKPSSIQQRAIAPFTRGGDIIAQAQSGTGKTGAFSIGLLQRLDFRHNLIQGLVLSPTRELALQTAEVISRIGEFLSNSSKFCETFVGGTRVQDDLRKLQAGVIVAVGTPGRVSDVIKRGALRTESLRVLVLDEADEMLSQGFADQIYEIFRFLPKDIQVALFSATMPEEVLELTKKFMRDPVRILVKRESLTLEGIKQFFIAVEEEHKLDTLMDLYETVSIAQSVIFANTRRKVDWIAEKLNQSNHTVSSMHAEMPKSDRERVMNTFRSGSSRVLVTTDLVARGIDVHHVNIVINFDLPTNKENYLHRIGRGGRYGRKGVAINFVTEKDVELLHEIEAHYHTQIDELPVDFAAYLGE
Description: as §1, §2
The Z’-factor is a statistical parameter used to measure the quality of a screening assay. For the biochemical screening, reactions were done with and without proteins as positive and negative controls, respectively. All assay conditions were identical to those described above. Positive controls were designed to replicate a positive hit in an inhibitor screen. Negative controls were designed as no enzymatic reactions. The phosphate released was measured after 45 min. Statistical analysis was performed using the equation: Z^′=1-3*(σ^++σ^-)/(μ^+-μ^-) (2) where μ^− and σ^− correspond to the mean absorbance and standard deviations respectively, for each reaction without enzyme (no activity), and μ^+ and σ^+ are the mean absorbance and standard deviations, respectively, for reaction wells in the presence of enzyme. The Z’-factor values above 0.5 were considered significant and corresponding plates were retained. […]

[5] = tested on: L. infantum promastigotes; experiment: MTT viability assay on promastigotes; type: cell-based; settings: Leishmania infantum, stationary phase promastigotes, 24h exposure
Description: The effect of the selected chemical compounds on the viability of L. infantum promastigotes was evaluated by a colorimetric MTT (3-(4,5-dimethylthiazol-2yl)-2,5-diphenyl tetrazolium bromide) assay that consisted in a reduction of tetrazolium salt to a soluble crystal (blue formazan) by the succinate dehydrogenase activity of mitochondria in living cells, which can be quantified by spectrophotometry as previously described. […] Briefly, 90 μl of promastigotes harvested from the stationary growth phase were added to a 96-well culture plate (5 × 10^5 cells/well) with 10 μl of various concentrations of the selected compounds (to obtain a final concentration of 1.5-100 μM) and incubated at 25°C for 24h. After incubation, 20 μl of MTT solution (5 mg/ml) were added to each well and incubated at 25°C for 4h. Then, 150 μl of DMSO was added to each well to dissolve the blue formazan and the optical density (OD) was measured at 560 nm with a microplate reader ([sequence], Labsystems). Mock treated-promastigotes in complete medium (with no drug, 1% DMSO) were used as positive control. Stock solutions of the compounds prepared for these experiments contained 100% DMSO. All subsequent dilutions were freshly made with RPMI 1640 (final concentration of 10% DMSO). Thus, all compounds, as well as the positive control, were tested at a final concentration of 1% DMSO per well.
The promastigotes viability was expressed as the percentage of the viable promastigotes in treated conditions relative to the 1% DMSO mock-treated promastigotes. The IC50 values were calculated for all the tested compounds by interpolation. […] All experiments were repeated three times in triplicate for each compound concentration. Absorbance measured was used to reflect promastigote or cell viability using the following formula: %cellviability=[(ODtest-ODblank)/(ODcontrol-ODblank)]*100 (4)

[6] = tested on: L. infantum intramacrophage amastigotes; experiment: Macrophage infection assay, intramacrophage amastigotes; type: cell-based, Leishmania infantum; settings: infected THP-1-derived macrophages, 24h exposure
Description: [86] […] [87] […] [87]
After careful washing of PMA-treated THP-1 cells (50,000 cells/well) with warm serum-free RPMI-1640 (∼ 37°C) media, 50 μl of the diluted L. infantum promastigote culture were added at the optimized MOI (10:1). Control wells of THP-1 cells without the parasites, and THP-1 cells with the parasites, were set up in each 8-well Labtek slides. The slides were incubated at 37°C, 5% CO2 overnight. After incubation, infected wells were washed at least 3 times with serum-free RPMI-1640 media to ensure complete removal of non-engulfed promastigotes, and then they were incubated in presence of different concentrations of compounds for 24 h. Control groups were incubated in supplemented RPMI medium containing 1% DMSO. Cells were then fixed and stained with RAL 555 rapid stain kit (May-Grünwald Type) (Cell Path, Newtown, UK) following the manufacturer’s instructions. The number of infected cells per 100 macrophages and the total number of parasites per 100 cells observed were determined by light microscopy under immersion oil (1000X) by counting at least 100 cells per well. Three independent experiments were conducted for each compound concentration. These values allowed us to determine the mean values and standard deviations of the percentage of infected cells and the mean amastigote number per cell. To account for the overall parasite load, an Infection Index was calculated by multiplying these two values; then, to assess the infection inhibition by the compounds, the percentage of Inhibition Parasite Index (IPI) was determined as: IPI = 100 − ((Infection Index in treated cells/Infection Index in untreated cells) * 100).
The amastigote IC50 values were calculated for all tested compounds. Selectivity index was also determined for each compound as follows: SI = CC50/IC50. Data were analyzed with Kaleidagraph (Synergy). The statistical significance of differences was determined with the Student’s t-test (* p < 0.05; ** p < 0.01).

[7] = 1 μM protein, 1 mM ATP, saturating RNA, read-out: IC50 of eIF4AIMus ATPase activity
[8] = Leishmania infantum, Macrophage, 24 h

T1 sequence (P60843 whole entry): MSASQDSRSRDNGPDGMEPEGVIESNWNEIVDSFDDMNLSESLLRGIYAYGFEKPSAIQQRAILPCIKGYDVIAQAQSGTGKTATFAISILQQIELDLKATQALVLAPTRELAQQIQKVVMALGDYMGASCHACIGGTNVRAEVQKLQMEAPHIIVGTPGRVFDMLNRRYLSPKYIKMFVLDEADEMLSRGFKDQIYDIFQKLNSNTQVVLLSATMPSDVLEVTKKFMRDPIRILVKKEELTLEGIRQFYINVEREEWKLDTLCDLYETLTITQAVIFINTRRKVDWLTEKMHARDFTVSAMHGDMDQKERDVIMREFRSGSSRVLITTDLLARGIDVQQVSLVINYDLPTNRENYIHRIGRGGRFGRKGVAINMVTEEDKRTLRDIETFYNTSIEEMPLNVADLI

Compound	reduction of the number of intracellular L. donovani amastigotes [1] [%]	IC50 [2, 7] [mM]	CC50 at 24 h [3] [µM]	IC50 [4] [mM]	inhibition at 500 µM ([4]; 500 μM compound, phosphate released after 45 min, 96-well screen, read-out: percentage of inhibition of LieIF ATPase activity) [%]	IC50 [5] [µM]	IC50 [6, 8] [µM]	effect on the ATPase activity of eIF4AIMus in screen [2]	effect on the ATPase activity of LieIF in screen [4]	IC50 [6] [µM]	IC50 [2] [mM]	IC50 ([2]; read-out: IC50 of eIF4AIMus ATPase activity, 1 μM protein, value printed in mM in text) [mM]	IC50 ([4]; read-out: IC50 of LieIF ATPase activity, 1 μM protein, value printed in mM in text) [mM]
7-α/β-aminocholesterol	59	–	–	–	–	–	–	–	–	–	–	–	–
CC(C)CCCC(C)C1CCC2C3CC(N)C4CC(O)CCC4(C)C3CCC12C (mixture of isomers) [Compound 208, 6-α/β-aminocholestanol]	–	0.115 ± 0.025	43.4 ± 0.1	0.15 ± 0.015	90	4.1 ± 2.6	1.4 ± 0.1	–	–	–	–	–	–
CC(C)CCCC(C)C1CCC2C3CC(N)C4CC(O)CCC4(C)C3CCC12C (stereo not drawn) [Compound 20, 6-α-aminocholestanol]	–	0.185 ± 0.025	35.2 ± 1.3	0.16 ± 0.025	–	3.6 ± 0.1	< 1	demonstrated inhibition	demonstrated inhibition	0.9	–	–	–
CC(C)CCCC(C)C1CCC2C3CC(=O)C4CC(O)CCC4(C)C3CCC12C (stereo not drawn) [Compound 48, 6-ketocholestanol]	–	–	81.4 ± 2.4	> 1	–	39.1 ± 0.8	4.2 ± 0.1	demonstrated inhibition	demonstrated inhibition	–	> 1	≤ 1	≤ 1
